Where a name gives a salt, the structure may show the parent alone. Read-outs that look alike come from different tables or passages of the source.
How the values were obtained:
[1] = system: synthesis of LTB4 in human whole blood; assay: human whole blood (HWB) assay, LTB4 production inhibition after calcimycin stimulation; type: cell-based; details: heparinized human whole blood, calcimycin 20 μM, plasma LTB4 by HTRF
Method: The compounds of the invention are additionally tested in a human whole blood (HWB) assay to determine their ability to inhibit the synthesis of LTB4 in a cellular system. Compounds are combined with heparinized human whole blood and incubated for 15 minutes at 37° C. Calcimycin (20 μM final, prepared in phosphate-buffered saline, pH 7.4) is then added and the mixture is incubated for another 30 minutes at 37° C. The samples are centrifuged for 5 min at low speed (1500×g) and the plasma layer is removed. Plasma LTB4 concentrations are then measured using an antibody-based homogenous time-resolved fluorescence method (CisBio, Bedford, Mass.). In general, the preferred potency range (IC50) of compounds in the HWB assay is between 10 nM to 10 μM, the more preferred potency range is 10 nM to 1 μM, and the most preferred potency range is 10 nM to 100 nM.

[2] = target: T1, human LTA4 hydrolase (Homo sapiens, UniProt P09960); assay: LTA4H Enzyme assay (cleavage of Arg-AMC, fluorescence); type: biochemical
T1 sequence (P09960 1-611): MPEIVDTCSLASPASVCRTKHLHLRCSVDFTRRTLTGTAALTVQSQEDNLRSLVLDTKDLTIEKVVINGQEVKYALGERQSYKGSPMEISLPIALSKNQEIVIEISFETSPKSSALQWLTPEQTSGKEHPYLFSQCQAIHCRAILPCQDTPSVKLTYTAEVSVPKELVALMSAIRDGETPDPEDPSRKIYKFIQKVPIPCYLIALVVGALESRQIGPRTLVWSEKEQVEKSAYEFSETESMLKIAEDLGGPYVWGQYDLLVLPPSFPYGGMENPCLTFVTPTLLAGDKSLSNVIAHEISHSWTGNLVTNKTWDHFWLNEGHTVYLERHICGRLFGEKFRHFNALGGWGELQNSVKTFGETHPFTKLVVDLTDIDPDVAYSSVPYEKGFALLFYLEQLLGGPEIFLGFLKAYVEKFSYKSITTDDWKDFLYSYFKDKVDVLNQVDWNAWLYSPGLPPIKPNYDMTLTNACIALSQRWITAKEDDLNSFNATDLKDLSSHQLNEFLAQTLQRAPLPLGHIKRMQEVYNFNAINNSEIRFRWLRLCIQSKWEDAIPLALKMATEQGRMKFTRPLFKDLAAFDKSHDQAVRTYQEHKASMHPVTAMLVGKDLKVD
Summary of the method: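 Aminomethylcoumarin release measured fluorimetrically (380/460 nm) after 1 h at room temperature. Reaction: 1 nM final enzyme, 50 μM final Arg-AMC and compound in Tris-HCl pH 7.5 with 100 mM KCl and 0.5% BSA.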

[3] = LTA4H Enzyme 1 nM, Arg-AMC substrate 50 μM, room temperature 1 h, fluorescence, read-out: IC50 values of LTA4H Enzyme assay

Compound | IC50 [1] | IC50 [2, 3] | IC50 [2]
c1cncc(OC2CCN(Cc3ccc([C@H]4COc5cccnc5O4)cc3)CC2)c1 [Example 293, (S)-3-{4-[4-(Pyridin-3-yloxy)-piperidin-1-ylmethyl]-phenyl}-2,3-dihydro-[1,4]dioxino[2,3-b]pyridine] | 52 nM | 0.24 nM | –
CC(C)(O)CNC(=O)[C@H]1[C@@H]2CN(Cc3ccc([C@H]4COc5cccnc5O4)cc3)C[C@@H]21 [Example 251, [(1α,5α,6α)-3-[(S)-4-(2,3-Dihydro-[1,4]dioxino[2,3-b]pyridin-3-yl)-benzyl]-3-aza-bicyclo[3.1.0]hexane-6-carboxylic acid (2-hydroxy-2-methyl-propyl)]-amide] | 63 nM | 0.16 nM | –
NC(=O)NCC1CCN(Cc2ccc([C@H]3COc4cccnc4O3)cc2)CC1 [Example 283, {1-[(S)-4-(2,3-Dihydro-[1,4]dioxino[2,3-b]pyridin-3-yl)-benzyl]-piperidin-4-ylmethyl}-urea] | 540 nM | 0.36 nM | –
NC(=O)N1C[C@@H]2C[C@H]1CN2Cc1ccc([C@H]2COc3cccnc3O2)cc1 [Example 268, (1S,4S)-5-[(S)-4-(2,3-Dihydro-[1,4]dioxino[2,3-b]pyridin-3-yl)-benzyl]-2,5-diaza-bicyclo[2.2.1]heptane-2-carboxylic acid amide] | 66 nM | 0.11 nM | –
O=C(NCCO)C1CCN(Cc2ccc(C3COc4ccccc4O3)cc2)CC1 (racemic) [Example 52, 1-[4-(2,3-dihydro-1,4-benzodioxin-2-yl)benzyl]-N-(2-hydroxyethyl)piperidine-4-carboxamide] | 145 nM | 0.75 nM | –
FC1CCN(Cc2ccc([C@H]3COc4cccnc4O3)cc2)CC1 [Example 155, (3S)-3-{4-[(4-fluoropiperidin-1-yl)methyl]phenyl}-2,3-dihydro[1,4]dioxino[2,3-b]pyridine] | 95 nM | 0.28 nM | –
C[C@@H](CO)NC(=O)[C@H]1[C@@H]2CN(Cc3ccc([C@H]4COc5cccnc5O4)cc3)C[C@@H]21 [Example 248, [(1α,5α,6α)-3-[(S)-4-(2,3-Dihydro-[1,4]dioxino[2,3-b]pyridin-3-yl)-benzyl]-3-aza-bicyclo[3.1.0]hexane]-6-carboxylic acid ((S)-2-hydroxy-1-methyl-ethyl)-amide] | 58 nM | 0.17 nM | –
O=C(O)C1(c2ccccc2)CCN(Cc2ccc([C@H]3COc4cccnc4O3)cc2)CC1 [Example 294, 1-[(S)-4-(2,3-Dihydro-[1,4]dioxino[2,3-b]pyridin-3-yl)-benzyl]-4-phenyl-piperidine-4-carboxylic acid] | 1300 nM | – | 5.8 nM
CS(=O)(=O)N1CCC(NCc2ccc([C@H]3COc4ccccc4O3)cc2)CC1 [Example 174, N-{4-[(2S)-2,3-dihydro-1,4-benzodioxin-2-yl]benzyl}-1-(methylsulfonyl)piperidin-4-amine] | 268 nM | 0.6 nM | –
NC(=O)c1cn2c(n1)CN(Cc1ccc([C@H]3COc4cccnc4O3)cc1)CC2 [Example 243, 7-[(S)-4-(2,3-dihydro-[1,4]dioxino[2,3-b]pyridin-3-yl)-benzyl]-5,6,7,8-tetrahydro-imidazo[1,2-a]pyrazine-2-carboxylic acid amide] | 99 nM | 0.42 nM | –
CC(=O)N1CC2CN(Cc3ccc([C@H]4COc5cccnc5O4)cc3)CC2C1 (stereo partly drawn) [Example 270, 1-{5-[(S)-4-(2,3-Dihydro-[1,4]dioxino[2,3-b]pyridin-3-yl)-benzyl]-hexahydro-pyrrolo[3,4-c]pyrrol-2-yl}-ethanone] | 35 nM | 0.14 nM | –
CC(C)(C(=O)O)C1CCN(Cc2ccc([C@H]3COc4ccccc4O3)cc2)CC1 [Example 229, 2-{1-[(S)-4-(2,3-Dihydro-benzo[1,4]dioxin-2-yl)-benzyl]-piperidin-4-yl}-2-methyl-propionic acid formate salt] | 290 nM | 3.85 nM | –
NC(=O)N1CC2CN(Cc3ccc([C@H]4COc5cccnc5O4)cc3)CC2C1 (stereo partly drawn) [Example 272, 5-[(S)-4-(2,3-Dihydro-[1,4]dioxino[2,3-b]pyridin-3-yl)-benzyl]-hexahydro-pyrrolo[3,4-c]pyrrole-2-carboxylic acid amide] | 71 nM | 0.09 nM | –
CNC(=O)c1cn2c(n1)CN(Cc1ccc([C@H]3COc4cccnc4O3)cc1)CC2 [Example 244, 7-[(S)-4-(2,3-dihydro-[1,4]dioxino[2,3-b]pyridin-3-yl)-benzyl]-5,6,7,8-tetrahydro-imidazo[1,2-a]pyrazine-2-carboxylic acid methylamide] | 120 nM | 0.26 nM | –
COC1CCN(Cc2ccc([C@H]3COc4cccnc4O3)cc2)C1 (stereo partly drawn) [Example 168, (3S)-3-{4-[(3-methoxypyrrolidin-1-yl)methyl]phenyl}-2,3-dihydro[1,4]dioxino[2,3-b]pyridine] | 39 nM | 0.31 nM | –
CC(C)(O)C(=O)NC1CCN(Cc2ccc([C@H]3COc4ccccc4O3)cc2)CC1 [Example 220, N-(1-{4-[(2S)-2,3-dihydro-1,4-benzodioxin-2-yl]benzyl}piperidin-4-yl)-2-hydroxy-2-methylpropanamide] | 91 nM | 0.47 nM | –
CC(=O)N1C[C@@H]2CC[C@H]1CN2Cc1ccc([C@H]2COc3cccnc3O2)cc1 [Example 264, 1-{(1S,4S)-5-[(S)-4-(2,3-Dihydro-[1,4]dioxino[2,3-b]pyridin-3-yl)-benzyl]-2,5-diaza-bicyclo[2.2.2]oct-2-yl}-ethanone] | 17 nM | 0.09 nM | –
CC(=O)N[C@H]1C[C@H]2CC[C@@H](C1)N2Cc1ccc([C@H]2COc3cccnc3O2)cc1 [Example 278, N-{(endo)-8-[(S)-4-(2,3-Dihydro-[1,4]dioxino[2,3-b]pyridin-3-yl)-benzyl]-8-aza-bicyclo[3.2.1]oct-3-yl}-acetamide] | 73 nM | 0.26 nM | –
OC[C@H]1CCCC[C@H]1NCc1ccc([C@H]2COc3ccccc3O2)cc1 [Example 87, [(1S,2R)-2-({4-[(2S)-2,3-dihydro-1,4-benzodioxin-2-yl]benzyl}amino)cyclohexyl]methanol] | 268 nM | 0.69 nM | –
O=C(O)C1CCN(Cc2ccc([C@H]3COc4ccccc4O3)cc2)CC1 [Example 200, (S)-1-[4-(2,3-dihydro-benzo[1,4]dioxin-2-yl)-benzyl]-piperidine-4-carboxylic acid] | 83 nM | 0.12 nM | –
O=C1NC(=O)C2(CCN(Cc3ccc([C@H]4COc5cccnc5O4)cc3)CC2)N1 [Example 165, 8-{4-[(3S)-2,3-dihydro[1,4]dioxin[2,3-b]pyridin-3-yl]benzyl}-1,3,8-triazaspiro[4.5]decane-2,4-dione] | – | 0.13 nM | –
c1ccc2c(c1)OCC(c1ccc(CN3CCCOCC3)cc1)O2 (racemic) [Example 32, 4-[4-(2,3-dihydro-1,4-benzodioxin-2-yl)benzyl]-1,4-oxazepan] | – | 1.8 nM | –
CS(=O)(=O)C1CCN(Cc2ccc(C3COc4ccccc4O3)cc2)CC1 (racemic) [Example 39, 1-[4-(2,3-dihydro-1,4-benzodioxin-2-yl)benzyl]-4-(methylsulfonyl)piperidine] | – | 2.14 nM | –
O=C(O)C[C@H]1CCCN(Cc2ccc([C@H]3COc4ccccc4O3)cc2)C1 [Example 182, [(3R)-1-{4-[(2S)-2,3-dihydro-1,4-benzodioxin-2-yl]benzyl}piperidin-3-yl]acetic acid] | – | 0.29 nM | –

— US8946203B2, “Benzodioxane inhibitors of leukotriene production” (Boehringer Ingelheim International GmbH, priority 2012, dated 2015)
